The term IC50 denotes the concentration at which inhibition is half-maximal.

Molecules are shown by their SMILES.

Experimental findings from article PMC6563716 (Helvetica Chimica Acta, 2019) are described below.

The assay concerns the target T1, human 15-lipoxygenase-1 (15-LOX-1) (Homo sapiens, UniProt P16050).
T1 sequence (P16050 2-662): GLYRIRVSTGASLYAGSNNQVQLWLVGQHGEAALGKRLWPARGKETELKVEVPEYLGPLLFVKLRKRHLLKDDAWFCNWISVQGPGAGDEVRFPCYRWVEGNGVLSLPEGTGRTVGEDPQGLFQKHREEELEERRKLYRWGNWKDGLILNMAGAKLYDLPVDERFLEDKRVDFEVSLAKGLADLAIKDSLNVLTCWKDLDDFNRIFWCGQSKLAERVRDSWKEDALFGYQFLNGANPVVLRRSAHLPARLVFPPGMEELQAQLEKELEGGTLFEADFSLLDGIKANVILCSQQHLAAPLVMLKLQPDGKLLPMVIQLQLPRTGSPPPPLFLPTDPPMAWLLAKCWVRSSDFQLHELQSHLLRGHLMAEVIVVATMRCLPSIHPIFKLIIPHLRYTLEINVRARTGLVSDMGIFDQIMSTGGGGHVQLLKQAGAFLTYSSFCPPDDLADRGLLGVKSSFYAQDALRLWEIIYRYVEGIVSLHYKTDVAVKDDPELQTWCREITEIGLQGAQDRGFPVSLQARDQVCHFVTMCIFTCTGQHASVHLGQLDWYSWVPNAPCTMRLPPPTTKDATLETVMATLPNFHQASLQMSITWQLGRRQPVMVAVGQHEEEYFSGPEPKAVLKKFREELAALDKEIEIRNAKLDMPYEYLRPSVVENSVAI
The assay can be described thus: UV absorption assay. Format: biochemical.
For the compound `CC(C)CCCC(C)CC(=O)NN=Cc1cccs1` (racemic) [compound 2, 3,7‐Dimethyl‐N′‐(thiophen‐2‐ylmethylene)octanehydrazide], the IC50 was found to be 59 ± 7 µM.

On to `COc1cc(C=NNC(=O)CC(C)CCCC(C)C)ccc1O` (racemic) [compound 4, N ′‐[(4‐Hydroxy‐3‐methoxyphenyl)methylidene]‐3,7‐dimethyloctanehydrazide], for which the concentration for half-maximal inhibition (IC50) was 42 ± 4 µM.

As to `CC(C)CCCC(C)CC(=O)NN=Cc1cccnc1` (racemic) [compound 17, 3,7‐Dimethyl‐N′‐[(pyridin‐3‐yl)methylidene]octanehydrazide], it took 16 ± 6 µM to reach half-maximal inhibition (IC50).
